Reference: PMC8987933 (Frontiers in Nutrition, 2022)
Where two headings read alike, the source gives them in different places.

How the values were obtained:
[1] = cited from earlier work
[2] = clinical; details: human, in vivo
Text: Healthy Chinese male subjects aged 18–45 years were recruited from a pool of over 200 healthy volunteers who had been genotyped for the ABCG2 421C>A (rs2231142) polymorphism. A total of 20 healthy Chinese male subjects were selected for the rosuvastatin pharmacokinetic study based on the ABCG2 421C>A genotypes. The study was reviewed and approved by the Joint Chinese University of Hong Kong-New Territories East Cluster Clinical Research Ethics Committee with reference number CRE-2010.524-T. The study was performed in accordance with the ethical standards laid down in the Declaration of Helsinki and subsequent revisions. Written informed consent was obtained from each participant.
All subjects were required to abstain from any prescription or non-prescription medications 2 weeks before and throughout the study. They were not allowed to take alcohol, tea, grapefruit juice, caffeine, soybean milk or dietary supplements and herbal products 2 weeks before and throughout the entire study period. They were also not allowed to smoke 2 weeks before and throughout the study. Subjects were requested to fast for 10 h before and 4 h after drug administration during the blood sampling sessions. Meals were standardized and consumed at 4 h and 10 h post-dosing. Drinking water was not allowed from 1 h pre-dose to 1 h post-dose except that needed for drug dosing at the time of blood sampling sessions. Subjects were asked to report any adverse effects at each visit to the study center.
This was an open-label, three-phase randomized crossover study. […] The herbal extracts were present as a powder which was taken in 150 ml water at room temperature. Blood samples were taken at intervals from 0 to 24 h on the rosuvastatin dosing days. During the study, subjects were frequently reminded of the requirements for diet restrictions, and they were requested to record their daily food intake, including the main meals, snacks and beverages of the day by using a simple food diary, which can help to monitor the food compliance during the study.
Plasma concentrations of rosuvastatin were determined by Liquid Chromatography-Tandem Mass Spectrometry (LC-MS/MS) using the corresponding isotopically labeled compound as an internal standard as described ([28]). The plasma samples were prepared using liquid–liquid extraction with diethyl ether. Chromatographic separation was accomplished on an Xterra MS C18 column (50 × 2.1 mm, 5 μm; Waters, Milford, MA). The mobile phase consisted of a gradient mixture of 0.015 mmol/L ammonium acetate in water (mobile phase A) and methanol (mobile phase B) at a flow rate of 0.4 mL/min. The gradient started at 20% mobile phase B for 0.5 min with a subsequent fast gradient to 100% mobile phase B in 1 min and maintained for another 2.5 min. The gradient was then returned to the initial mobile phase concentration in a chromatographic run of 8 min. MS/MS detection with quantification transition of m/z 480.1–418.1 and qualification transition of m/z 480.1–340.1 was used for rosuvastatin. The lower limit of quantification of rosuvastatin was 0.05 μg/L by using 200 μL plasma.
The pharmacokinetic parameters of rosuvastatin were calculated using non-compartmental methods with the aid of the computer program WinNolin (version 2.1, Pharsight Corporation). The maximum plasma concentration (Cmax) and time to Cmax (tmax) were obtained directly from the observed concentration-time data. The terminal elimination rate constant (λZ) was estimated by linear regression of the terminal portion of the concentration-time curve, and the elimination half-life (t1/2) was calculated as 0.693/λZ. Systemic exposure to rosuvastatin was evaluated by calculating the AUC using the linear trapezoidal rule and AUC0−∞ was calculated as AUC0−∞ = AUC0−t + Ct/Kel where Ct is the last quantifiable concentration. The oral clearance (CL/F) was calculated as Dose/AUC0−∞.

[3] = cited from earlier work; remark: listed apart in the source
[4] = test system: OATP1A2; details: cited from earlier work
[5] = test system: human P-gp; details: cited from earlier work
[6] = test system: human BCRP; details: cited from earlier work
[7] = test system: OATP2B1; details: cited from earlier work
[8] = test system: OATP1B1; details: cited from earlier work
[9] = test system: OATP1B3; details: in vitro studies; cited from earlier work
[10] = cited from earlier work; remark: listed apart in the source
[11] = cited from earlier work; remark: listed apart in the source
[12] = with green tea; 10 healthy volunteers; cited from earlier work
[13] = rosuvastatin administered with 300 mg pure crystalline EGCG (single dose)
[14] = pre-treatment with green tea extract (400 mg/kg) vs control

## CC(C)c1nc(N(C)S(C)(=O)=O)nc(-c2ccc(F)cc2)c1/C=C/[C@@H](O)C[C@@H](O)CC(=O)O [Rosuvastatin, rosuvastatin]
[1]; after giving EGCG daily for 10 days
  systemic exposure of rosuvastatin vs baseline before EGCG: not significantly different from the baseline value
[1]; [13]
  reduction of AUC up to 8 h: 19%
  reduction of Cmax: 15%
[2]; po, 10 mg
  Clearance (oral clearance CL/F): 85.1 (28.4) L/h
[2]; male
  AUC0−24h GMR (90%CI): 0.78
  Cmax GMR (90%CI): 0.71
[2]; male, 10 mg
  AUC(0-inf): 118 ng·h/mL
  AUC(0-t): 109 ng·h/mL
  Cmax: 13.1 (32.2) μg/L
  half-life: 6.21 h
  tmax: 3.0 (1.5, 6.0) h
[3]; SLCO1B1*1b/*1b subjects
  change of systemic exposure of rosuvastatin after baicalin compared to placebo: −41.9%
[3]; SLCO1B1*1b/*15 subjects
  change of systemic exposure of rosuvastatin after baicalin compared to placebo: −23.9%

## O=C(O[C@@H]1Cc2c(O)cc(O)cc2O[C@@H]1c1ccc(O)c(O)c1)c1cc(O)c(O)c(O)c1 [ECG, epicatechin gallate]
[4]
  inhibition of OATP1A2: can inhibit
[5]
  effect on P-gp-mediated dasatinib efflux: no significant effect
[6]
  effect on BCRP-mediated dasatinib efflux: no significant effect
[7]
  inhibition of OATP2B1: can inhibit
[8]
  inhibition of OATP1B1: can inhibit

## (–)-epigallocatechin-3-gallate [EGCG]
[4]; concentration-dependent
  effect on OATP1A2-mediated uptake of estrone-3-sulfate: inhibited
[5]
  effect on P-gp-mediated dasatinib efflux: no significant effect
[9]
  effect on OATP1B3: activate
[6]
  effect on BCRP-mediated dasatinib efflux: no significant effect
[7]; concentration-dependent
  effect on OATP2B1-mediated uptake of estrone-3-sulfate: inhibited

## Oc1cc(O)c2c(c1)O[C@H](c1ccc(O)c(O)c1)[C@H](O)C2 [EC, epicatechin]
[5]
  effect on P-gp-mediated dasatinib efflux: no significant effect
[6]
  effect on BCRP-mediated dasatinib efflux: no significant effect

## CCN(CC)CCNC(=O)c1c(C)[nH]c(/C=C2\C(=O)Nc3ccc(F)cc32)c1C [sunitinib]
[10]; EGCG and sunitinib taken together
  effect of EGCG on bioavailability of sunitinib: reduced the bioavailability
[10]; EGCG taken 8 or 4 h before sunitinib administration
  effect of EGCG on the pharmacokinetics of sunitinib: no effect

## CC(C)(C)NCC(O)COc1cccc2c1CC(O)C(O)C2 (centres unmarked) [nadolol]
[11]; EGCG alone (150 mg/kg)
  reduction in AUC of nadolol: 73%
  reduction in Cmax of nadolol: 81%
[11]; [14]
  reduction in AUC of nadolol: 74%
  reduction in Cmax of nadolol: 85%
[12]
  decrease of AUC of nadolol: 85.0%
  decrease of Cmax of nadolol: 85.3%

## Oc1cc(O)c2c(c1)O[C@H](c1cc(O)c(O)c(O)c1)[C@H](O)C2 [EGC, epigallocatechin]
[5]
  effect on P-gp-mediated dasatinib efflux: no significant effect
[6]
  effect on BCRP-mediated dasatinib efflux: no significant effect
